In patent publication US20080014145A1, “ABALONE SETTLEMENT BIOASSAY FOR ANTI-SEIZURE SUBSTANCE SCREENING” (priority 2006, published 2008):

Key:
[1] = system: Haliotis rufescens larvae; conditions: cited from earlier work; for induction of larvae settlement: in vivo
Haliotis rufescens = conditions: in vivo; cited from earlier work
[2] = system: two different species of Haliotis; conditions: cited from earlier work
[3] = system: larvae of Haliotis discus hannai; conditions: in vivo; cited from earlier work
[4] = molecular target: T1, thyroxine-binding globulin (Homo sapiens, UniProt P05543); conditions: cited from earlier work
T1 sequence (P05543 21-415): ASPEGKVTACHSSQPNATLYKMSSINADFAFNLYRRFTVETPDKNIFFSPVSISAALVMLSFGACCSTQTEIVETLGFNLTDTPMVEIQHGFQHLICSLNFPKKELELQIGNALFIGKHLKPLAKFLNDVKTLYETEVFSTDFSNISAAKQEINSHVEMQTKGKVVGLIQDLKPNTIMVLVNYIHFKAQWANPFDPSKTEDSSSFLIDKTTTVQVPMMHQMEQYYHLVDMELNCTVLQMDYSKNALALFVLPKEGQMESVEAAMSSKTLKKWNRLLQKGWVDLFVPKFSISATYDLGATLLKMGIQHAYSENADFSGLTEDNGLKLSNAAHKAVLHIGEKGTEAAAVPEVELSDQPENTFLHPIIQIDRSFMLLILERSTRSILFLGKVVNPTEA

[5] = system: chemically induced electrographic seizures; assay: Focal perfusion of rat cerebral cortex, chemically induced electrographic seizures; format: in vivo; conditions: focal perfusion of local areas of rat cerebral cortex; personal experience

Structure (SMILES)	induction of larvae settlement [1]	other results
Br [Br^−]		induction of settlement by anion replacement ([1]; replacing 25-75% of the Cl^− in seawater): may be induced
N[C@H](CCC(=O)O)C(=O)O [D-glutamate]	completely ineffective	
NCCCC(=O)O [GABA, γ-aminobutyric acid]		larval attachment ([1]; 10^−6 molar in sea water): 96-100%
N[C@@H](CCC(=O)O)C(=O)O [L-glutamate]	did slowly promote larval settlement	
NC(=O)CC[C@H](N)C(=O)O [L-glutamine]	completely ineffective	
N[C@@H](Cc1cc(I)c(Oc2cc(I)c(O)c(I)c2)c(I)c1)C(=O)O [L-thyroxine]		induction of larval metamorphosis (Haliotis rufescens): could induce larval metamorphosis; induction of larval metamorphosis [2]: can induce larval metamorphosis
[Mg+2] [Mg^+2]	not able to induce	
[Na+] [Na^+]	not able to induce	
N[C@@H](Cc1cc(I)c(Oc2ccc(O)c(I)c2)c(I)c1)C(=O)O [T3]		induction of larval metamorphosis [2]: can induce larval metamorphosis
CBr [bromomethane]		induction in larvae [3]: induction has been triggered
CN1C(=O)CN=C(c2ccccc2)c2cc(Cl)ccc21 [diazepam]		inhibition of thyroxine binding to thyroxine-binding globulin [4]: competitively inhibit
CNC[C@H](O)c1ccc(O)c(O)c1 [epinephrine]	not able to induce	
NCC(=O)O [glycine]	can also induce Haliotis larvae settlement	
NCCc1c[nH]cn1 [histamine]	not able to induce	
NCc1cc(=O)[nH]o1 [muscimol]	can also induce Haliotis larvae settlement	
CCCCN [n-butylamine]	not able to induce	
CCCC(=O)O [n-butyric acid]	not able to induce	
NC[C@H](O)c1ccc(O)c(O)c1 [norepinephrine]	not able to induce	
[Cl-].[K+] [potassium chloride]		effect on chemically induced electrographic seizures [5]: may prevent or abort
[K+] [potassium]		promotion of settlement ([1]; higher concentrations of K^+): will not promote settlement; effect on settlement induction by GABA ([1]; low concentration of K^+): inhibit induction by GABA; larva attached ([1]; ˜10 mM above that found in seawater, within 72 hours): up to 90%
NCCc1c[nH]c2ccc(O)cc12 [serotonin]	not able to induce	
NCCC(=O)O [β-alanine]	can also induce Haliotis larvae settlement	
NCCCCC(=O)O [δ-amniovaleric]	can also induce Haliotis larvae settlement	
NCCCCCC(=O)O [ε-amniocaproic acid]	can also induce Haliotis larvae settlement	
